For one compound, Cmax results are on record in patent US20120053534A1, “INTRAVAGINAL DEVICES COMPRISING ANTICHOLINERGIC AGENTS, AND METHODS OF MAKING THEREOF” (priority 2010, published 2012).

SMILES strings stand for the structures.

This series is described as follows: in vivo. As to conditions: female, dog, plasma, po, 10 mg/day.

Procedure: A study was conducted to determine the levels of oxybutynin and its active metabolite, N-desethyloxybutynin, present in plasma following oral and intravaginal administration of oxybutynin in dogs.
A 14 day study was conducted, where 8 young adult females were randomly assigned to 4 groups of 2 dogs each.

For `CCN(CC)CC#CCOC(=O)C(O)(c1ccccc1)C1CCCCC1` (stereo not shown) [oxybutynin, 4-diethylaminobut-2-ynyl2-cyclohexyl-2-hydroxy-2-phenyl-ethanoate], the highest concentration (Cmax) – broadly, the maximum level reached in the sampled fluid or tissue – is roughly 17.9 ng/mL.
